{"source": "patent US8637553B2", "about": "“Fluoro substituted omega-carboxyaryl diphenyl urea for the treatment and prevention of diseases and conditions” (Bayer Healthcare LLC, priority 2003, dated 2014)", "key": {"[1]": {"tested_on": "phospho-PDGFR-beta in aortic smooth muscle cells", "experiment": "pPDGFR-beta in AoSMC cells", "assay_type": "cell-based", "details": "PDGF-BB stimulated", "description": "100K P3-P6 Aortic SMC were plated in each well of 12-well cluster in 1000 μL volume/well of SGM-2 using standard cell culture techniques. Next day, cells were rinsed with 1000 μL D-PBS once, then serum starved in 500 μL SBM (smooth muscle cell basal media) with 0.1% BSA overnight. Compounds were diluted at a dose range from (10 μM to 1 nM in 10-fold dilution steps in DMSO. Final DMSO concentration 0.1%). Remove old media by inversion into the sink quickly then add 100 μL of each dilution to corresponding well of cells for 1 h at 37° C. Cells were then stimulated with 10 ng/mL PDGF-BB ligand for 7 min at 37° C. The media is decanted and 150 μL of isotonic lysis buffer with protease inhibitor tablet (Complete; EDTA-free) and 0.2 mM Na vanadate is added. Cells are lysed for 15 min at 4° C. on shaker in cold room. Lysates are put in eppendorf tubes to which 15 μL of agarose-conjugated anti-PDGFR-beta antibody is added and incubated at 4° C. overnight. Next day, beads are rinsed in 50-volumes of PBS three times and boiled in 1×LDS sample buffer for 5 minutes. Samples were run on 3-8% gradient Tris-Acetate gels and transferred onto Nitrocellulose. Membranes were blocked in 1% BSA/TBS-T for 1 hr. before incubation in anti-phospho-PDGFR-b (Tyr-857) antibody in blocking buffer (1:1000 dilution) for 1 h. […]"}, "[2]": {"tested_on": "pERK in MDA-MB-231 cells", "experiment": "Bio-Plex phospho-ERK 1/2 immunoassay (basal pERK)", "assay_type": "cell-based", "details": "Homo sapiens, 2 h incubation", "description": "A 96 well pERK immunoassay, using laser flow cytometry (Bio-Rad) platform has been established to measure inhibition of basal pERK in breast cancer cell line. MDA-MB-231 cells were plated at 50,000 cells per well in 96 well microtitre plates in complete growth media. For effects of test compounds on basal pERK½ inhibition, the next day after plating, MDA-MB-231 cells were transferred to DMEM with 0.1% BSA and incubated with test compounds diluted 1:3 to a final concentration of 3 μM to 12 nM in 0.1% DMSO. Cells were incubated with test compounds for 2 h, washed, and lysed in Bio-Plex whole cell lysis buffer A. Samples are diluted with buffer B 1:1 (v/v) and directly transferred to assay plate or frozen at −80 C. degrees until processed. 50 μL of diluted MDA-MB-231 cell lysates were incubated with about 2000 of 5 micron Bio-Plex beads conjugated with an anti-ERK½ antibody overnight on a shaker at room temperature. The next day, biotinylated phospho-ERK½ sandwich immunoassay was performed, beads are washed 3 times during each incubation and then 50 μL of PE-strepavidin was used as a developing reagent. The relative fluorescence units of pERK½ were detected by counting 25 beads with Bio-Plex flow cell (probe) at high sensitivity. The IC50 was calculated by taking untreated cells as maximum and no cells (beads only) as background using in an Excel spreadsheet based program."}, "[3]": {"tested_on": "MDA-MB-231 cells", "experiment": "MDA-MB231 proliferation assay (CellTiter-Glo)", "assay_type": "cell-based", "details": "Homo sapiens, 72 hours", "description": "Human breast carcinoma cells (MDA MB-231, NCI) were cultured in standard growth medium (DMEM) supplemented with 10% heat-inactivated FBS at 37° C. in 5% CO2 (vol/vol) in a humidified incubator. Cells were plated at a density of 3000 cells per well in 90 μL growth medium in a 96 well culture dish. In order to determine T0h CTG values, 24 hours after plating, 100 μL of CellTiter-Glo Luminescent Reagent (Promega) was added to each well and incubated at room temperature for 30 minutes. Luminescence was recorded on a Wallac Victor II instrument. The CellTiter-Glo reagent results in cell lysis and generation of a luminescent signal proportional to the amount of ATP present, which, in turn is directly proportional to the number of cells present.\nTest compounds are dissolved in 100% DMSO to prepare 10 mM stocks. […] The cells with and without individual test compounds were incubated for 72 hours at which time ATP dependent luminescence was measured, as described previously, to yield T72h values. Optionally, the IC50 values can be determined with a least squares analysis program using compound concentration versus percent inhibition. % Inhibition=[1−(T72h test−T0h)/(T72h ctrl−T0h)]×100, where T72h test=ATP dependent luminescence at 72 hours in the presence of test compound T72h ctrl=ATP dependent luminescence at 72 hours in the absence of test compound T0h=ATP dependent luminescence at Time Zero"}, "[4]": {"biological_target": "T1, p38 α2 (Homo sapiens, UniProt Q16539)", "T1 construct": "His; made in house; host or cells: E. coli", "T1 sequence (Q16539 whole entry)": "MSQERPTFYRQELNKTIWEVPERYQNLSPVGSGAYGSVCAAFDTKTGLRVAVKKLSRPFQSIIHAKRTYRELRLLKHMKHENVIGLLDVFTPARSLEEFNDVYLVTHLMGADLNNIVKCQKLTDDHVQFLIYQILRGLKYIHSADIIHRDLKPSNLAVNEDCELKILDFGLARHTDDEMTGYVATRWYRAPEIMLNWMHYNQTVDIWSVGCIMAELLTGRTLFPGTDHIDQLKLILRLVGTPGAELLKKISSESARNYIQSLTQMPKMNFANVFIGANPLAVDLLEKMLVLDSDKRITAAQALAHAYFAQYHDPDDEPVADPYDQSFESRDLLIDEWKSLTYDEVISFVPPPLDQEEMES", "experiment": "p38 kinase in vitro assay", "details": "in vitro kinase biochemical assay", "description": "Purified and His-tagged p38 α2 (expressed in E. Coli) was activated in vitro by MMK-6 to a high specific activity. Using a microtiter format, all reactions were conducted in 100 μL volumes with reagents diluted to yield 0.05 μg/well of activated p38 α2 and 10 μg/well of myelin basic protein in assay buffer (25 mM HEPES 7.4, 20 mM MgCl2, 150 mM NaCl). Test compounds (5 μL of a 10% DMSO solution in water) were prepared and diluted into the assay to cover a final concentration range from 5 nM to 2.5 μM. The kinase assay was initiated by addition of 25 μL of an ATP cocktail to give a final concentration of 10 μM cold ATP and 0.2 μCi [gamma-^33P] ATP per well (200-400 dpm/pmol of ATP). The plate was incubated at 32° C. for 35 min., and the reaction quenched with 7 μL of a 1 N aq HCl solution. The samples were harvested onto a P30 Filtermat (Wallac, Inc.) using a TomTec 1295 Harvester (Wallac, Inc.), and counted in a LKB 1205 Betaplate Liquid Scintillation Counter (Wallac, Inc.). Negative controls included substrate plus ATP alone. SW1353 cellular assay: SW1353 cells (human chondro-sarcoma) are seeded (1000 cells/100 μL DMEM 10% FCS/well) into 96-well plates and incubated overnight. […] Cultures are incubated for 48 h at 37° C., then supernatant IL-6 values are determined by ELISA."}}}
{"smiles": "CNC(=O)c1cc(Oc2ccc(NC(=O)Nc3ccc(Cl)c(C(F)(F)F)c3)c(F)c2)ccn1", "note": "[Example 1, 4{4-[3-(4-chloro-3-trifluoromethylphenyl)-ureido]-3-fluorophenoxy}-pyridine-2-carboxylic acid methylamide]", "values": [{"measurement": "IC50", "setting": "[1]", "value": 43.6, "unit": "nM"}, {"measurement": "IC50", "setting": "[2]", "value": 22, "unit": "nM"}, {"measurement": "IC50", "setting": "[3]", "value": 600, "unit": "nM"}, {"measurement": "IC50", "setting": "[4]", "value": 24, "unit": "nM"}]}
